{
  "source": "patent US20060275503A1",
  "about": "“Combination treatment with strontium for the prophylaxis and/or treatment of cartilage and/or bone conditions” (Nordic Bone A/S, priority 2003, published 2006)",
  "key": {"[1]": {"description": "The solubility of the organic carboxylic acid strontium salts, were measured in water. The solubility of these salts was also measured as a function of temperature. This was performed by incubating the saturated solutions of the salts in temperature controlled incubators.\nThe buffered solutions were immersed into a bath of water temperature controlled at either room temperature (22-24° C.), at 30° C. or at 40° C. […] In order to eliminate any reminiscent strontium chloride influence on the determination of solubility, all the precipitate was collected at the bottom of the test tubes and the solutions above the precipitate were carefully removed and substituted by fresh solutions. […] From these solutions, the dissolved proportions of the strontium salt were collected in volumes of 1 mL at the specified temperature. The solutions were diluted to 50 mL before analysis by Flame Atomic Absorption Spectrometry (F-AAS).\nTwo methods were used for quantification of strontium in solutions: Flame Atomic Absorption Spectrometry (F-AAS), and the more sensitive inductively-coupled-plasma-mass spectrometry (ICP-MS).\nThe solubilities were investigated as described above, and strontium content in the saturated solutions determined as described here below.\nSome of the very soluble strontium salts were further diluted before analysis by F-AAS. The measurements were performed by using a Perkin-Elmer 2100 equipped with a hydrogen lamp for correction of the background signal. Strontium was measured at a slit with of 0.2 nm, the wavelength was 460.8 nm operated at an energy of 58 and a current of 8 mA.\nThis analysis was performed using a Perkin Elmer Elan 5000 system equipped with a cross-flow nebulizer. The power was set at 1000 W and the Argon-gas flow was 12 L/min and 0.8 L/min of the torch and plasma gas, respectively."}, "[2]": {"conditions": "values quoted in scientific literature or reference material such as the Beilstein compendium; cited from earlier work"}, "[3]": {"molecular_target": "T1, calcium-sensing receptor (CaR) (Homo sapiens, UniProt P41180)", "T1 sequence (P41180 20-1078)": "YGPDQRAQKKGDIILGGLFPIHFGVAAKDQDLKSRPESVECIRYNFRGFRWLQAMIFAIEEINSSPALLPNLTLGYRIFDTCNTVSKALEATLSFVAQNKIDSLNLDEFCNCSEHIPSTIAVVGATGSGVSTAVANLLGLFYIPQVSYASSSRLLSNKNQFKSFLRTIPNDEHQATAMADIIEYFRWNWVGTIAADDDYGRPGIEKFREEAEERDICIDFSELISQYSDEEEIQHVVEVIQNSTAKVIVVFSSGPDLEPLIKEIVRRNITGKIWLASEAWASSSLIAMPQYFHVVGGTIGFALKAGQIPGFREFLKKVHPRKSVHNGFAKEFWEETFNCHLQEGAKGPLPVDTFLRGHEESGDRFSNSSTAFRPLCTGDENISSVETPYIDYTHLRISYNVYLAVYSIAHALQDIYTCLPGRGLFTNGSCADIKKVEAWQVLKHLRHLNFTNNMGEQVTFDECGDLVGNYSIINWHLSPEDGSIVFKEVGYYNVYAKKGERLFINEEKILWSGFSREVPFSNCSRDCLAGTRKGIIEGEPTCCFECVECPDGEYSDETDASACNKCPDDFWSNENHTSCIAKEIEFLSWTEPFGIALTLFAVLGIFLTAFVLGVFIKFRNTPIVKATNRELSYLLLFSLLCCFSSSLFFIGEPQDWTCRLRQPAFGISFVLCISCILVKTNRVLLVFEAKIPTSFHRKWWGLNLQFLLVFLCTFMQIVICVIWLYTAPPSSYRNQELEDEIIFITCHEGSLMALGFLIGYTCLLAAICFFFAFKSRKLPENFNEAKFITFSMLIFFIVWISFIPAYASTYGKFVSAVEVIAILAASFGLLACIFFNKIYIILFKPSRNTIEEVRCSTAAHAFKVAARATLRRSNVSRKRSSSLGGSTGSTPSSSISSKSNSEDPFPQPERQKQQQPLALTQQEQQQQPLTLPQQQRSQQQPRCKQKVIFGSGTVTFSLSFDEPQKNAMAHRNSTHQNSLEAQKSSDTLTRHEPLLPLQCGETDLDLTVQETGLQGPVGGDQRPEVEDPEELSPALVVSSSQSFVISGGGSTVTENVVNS", "conditions": "cited from earlier work"}},
  "data": [
    {"smiles": "O=C([O-])/C=C\\C(=O)[O-].[Sr+2]", "note": "[Maleate, strontium maleate]", "values": [
      {"measurement": "solubility in ammonium carbonate buffered solution of pH 7.5 compared with pure water", "setting": "[1]; pH 7.5", "result": "decreased solubility"}
    ]},
    {"smiles": "N#Cc1c(N(CC(=O)[O-])CC(=O)[O-])sc(C(=O)[O-])c1CC(=O)[O-].[Sr+2].[Sr+2]", "note": "[Ranelate, distrontium salt of 2-[N,N-di(carboxymethyl)amino]-3-cyano-4-carboxymethylthiophene-5-carboxylic acid]", "values": [
      {"measurement": "SOLUBILITY AT 40° C. (mg/L) In water", "setting": "[1]", "result": 1450, "unit": "mg/L"},
      {"measurement": "SOLUBILITY AT ROOM TEMPERATURE (22-24° C. mg/L) In water", "setting": "[1]", "result": 760, "unit": "mg/L"},
      {"measurement": "SOLUBILITY AT 40° C. (mg/L) pH 7.5", "setting": "[1]; pH 7.5", "result": 1970, "unit": "mg/L"},
      {"measurement": "SOLUBILITY AT ROOM TEMPERATURE (22-24° C. mg/L) pH 7.5", "setting": "[1]; pH 7.5", "result": 890, "unit": "mg/L"}
    ]},
    {"smiles": "[Cl-].[Cl-].[Sr+2]", "note": "[SrCl2, strontium chloride]", "values": [
      {"measurement": "Solubility, Expected value 18° C.", "setting": "[2]", "result": 538, "unit": "mg/mL"},
      {"measurement": "Solubility, Measured g/L", "setting": "[1]; commercially available strontium salts, in water at room temperature (22-24)", "result": 240, "unit": "g/L"}
    ]},
    {"smiles": "[Sr+2]", "note": "[strontium]", "values": [
      {"measurement": "activity at the calcium-sensing receptor (CaR)", "setting": "[3]", "result": "full agonist"}
    ]}
  ]
}
